Data published in ChEMBL document CHEMBL1201862, “PubChem BioAssay data set” (2004).
The source made the active and inactive calls.

Assays:
[1] = test system: P388; test: cells; format: functional; conditions: Mus musculus
[2] = test system: P388/ADR; test: cells; format: functional; conditions: Mus musculus
[3] = test system: SN12K1; test: cells; format: functional; conditions: Homo sapiens
[4] = target: T1, Endoribonuclease toxin MazF (Escherichia coli K-12, UniProt P0AE70); test: fluorescent RNA oligo signal without MazF, dose response, counter-screen for MazEF activator project, biochemical, fluorescence, single-stranded RNase substrate (AID 588502); format: functional
T1 sequence (P0AE70 whole entry): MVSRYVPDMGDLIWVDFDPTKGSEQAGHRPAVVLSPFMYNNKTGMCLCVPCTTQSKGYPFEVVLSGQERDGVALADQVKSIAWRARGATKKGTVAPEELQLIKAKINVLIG

[5] = target: T1, Endoribonuclease toxin MazF; test: MazF toxin RNase activators, dose response, biochemical, fluorescence, single-stranded RNA substrate, uHTS hits (AID 588481); format: functional
[6] = off-target signal loss in HeLa-CEM21 co-culture – HeLa F-luc CTL cells, cherry-picked, counter-screen for HIV-1 Env fusion inhibitor project, dose response (AID 652040); format: functional, cell-based;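 also: potency for signal decrease marking cytotoxic or nonspecific inhibition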
[7] = inhibitors of clade B AD8 Env fusion, dose response, cell-based, cherry-pick (AID 652062); format: functional;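 also: luciferase signal from cell-cell fusion driven by HIV-1 clade B AD8 Env; potency is for inhibitors of fusion seen as a drop in luminescence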
[8] = target: T2, Protein skinhead-1 (Caenorhabditis elegans, UniProt P34707); format: functional
T2 sequence (P34707 whole entry): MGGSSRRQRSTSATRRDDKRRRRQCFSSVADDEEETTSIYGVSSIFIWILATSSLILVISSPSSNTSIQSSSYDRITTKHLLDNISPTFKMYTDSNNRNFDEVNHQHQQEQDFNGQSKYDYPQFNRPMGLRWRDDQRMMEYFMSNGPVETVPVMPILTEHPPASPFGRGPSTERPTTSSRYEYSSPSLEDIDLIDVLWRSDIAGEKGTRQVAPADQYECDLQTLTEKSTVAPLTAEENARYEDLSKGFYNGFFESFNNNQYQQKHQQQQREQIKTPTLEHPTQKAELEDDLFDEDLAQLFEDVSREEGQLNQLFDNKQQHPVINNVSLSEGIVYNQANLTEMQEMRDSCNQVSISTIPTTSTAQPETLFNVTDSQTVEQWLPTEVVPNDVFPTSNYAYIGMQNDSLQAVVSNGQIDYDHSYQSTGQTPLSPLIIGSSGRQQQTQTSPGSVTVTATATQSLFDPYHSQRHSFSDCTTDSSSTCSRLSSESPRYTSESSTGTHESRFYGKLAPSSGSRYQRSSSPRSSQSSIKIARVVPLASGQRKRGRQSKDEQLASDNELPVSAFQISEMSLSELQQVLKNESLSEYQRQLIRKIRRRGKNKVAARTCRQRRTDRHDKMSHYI

[9] = target: T3, Probable nicotinate-nucleotide adenylyltransferase (Staphylococcus aureus (strain N315), UniProt P65502); format: functional, Staphylococcus aureus subsp. aureus N315;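 as to IC50 Mean: confirmatory dose-response retesting of NadD inhibitor hits first found in an ultra-high-throughput screen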
[10] = target: T3, Probable nicotinate-nucleotide adenylyltransferase; format: functional, Staphylococcus aureus subsp. aureus N315; conditions: read-out: IC50_Mean
[11] = target: Beta-galactosidase (Escherichia coli, UniProt Q8VNN2); test: PubChem AID 485352; format: functional
[12] = target: T4, Type-1 angiotensin II receptor (Homo sapiens, UniProt P30556); test: AT1 receptor antagonists, dose response, selectivity assay for APJ receptor antagonist project, cell-based, uHTS hits (AID 463214); format: functional;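 also: antagonist potency against angiotensin II stimulated AT1 response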
T4 sequence (P30556 whole entry): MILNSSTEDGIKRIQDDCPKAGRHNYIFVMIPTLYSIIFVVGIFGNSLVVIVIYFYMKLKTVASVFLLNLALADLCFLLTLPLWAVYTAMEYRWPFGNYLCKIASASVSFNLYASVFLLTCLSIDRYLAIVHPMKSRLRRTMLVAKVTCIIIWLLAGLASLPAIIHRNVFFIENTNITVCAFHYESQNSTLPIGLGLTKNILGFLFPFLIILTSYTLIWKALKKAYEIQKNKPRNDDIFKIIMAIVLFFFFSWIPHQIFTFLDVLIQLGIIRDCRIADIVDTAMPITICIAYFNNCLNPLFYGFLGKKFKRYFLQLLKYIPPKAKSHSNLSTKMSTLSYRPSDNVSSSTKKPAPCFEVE

[13] = target: T5, Small ubiquitin-related modifier 1 (Homo sapiens, UniProt P63165); test: inhibitors of SUMO1 partner interactions, dose response, biochemical, FRET (AID 624383); format: functional; conditions: read-out: IC50_Mean
[14] = target: T5, Small ubiquitin-related modifier 1; test: inhibitors of SUMO1 peptide binding, dose response, biochemical, fluorescence polarization, uHTS hits (AID 624382); format: functional; conditions: read-out: IC50_Mean
[15] = target: Heat shock protein HSP 90-alpha (Homo sapiens, UniProt P07900); format: functional, organism-based
[16] = test system: Vero; test: cells; format: functional; conditions: Chlorocebus sabaeus
[17] = Fluorescence-based cell-based high throughput dose response assay for inhibitors of the interaction of nucleotide-binding oligomerization domain containing 2 (NOD2) and the receptor-interacting serine-threonine kinase 2 (RIPK2).; format: functional; conditions: Homo sapiens

T3 sequence (P65502 whole entry): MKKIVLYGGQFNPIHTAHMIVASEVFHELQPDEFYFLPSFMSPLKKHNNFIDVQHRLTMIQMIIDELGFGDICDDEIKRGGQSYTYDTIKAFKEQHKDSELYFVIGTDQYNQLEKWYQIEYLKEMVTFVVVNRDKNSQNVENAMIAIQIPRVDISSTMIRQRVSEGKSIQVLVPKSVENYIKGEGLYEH
T5 sequence (P63165 whole entry): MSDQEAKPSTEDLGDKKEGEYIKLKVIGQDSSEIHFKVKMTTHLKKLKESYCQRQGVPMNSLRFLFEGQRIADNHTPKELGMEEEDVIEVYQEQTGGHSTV
Chain of Beta-galactosidase (Q8VNN2 whole entry): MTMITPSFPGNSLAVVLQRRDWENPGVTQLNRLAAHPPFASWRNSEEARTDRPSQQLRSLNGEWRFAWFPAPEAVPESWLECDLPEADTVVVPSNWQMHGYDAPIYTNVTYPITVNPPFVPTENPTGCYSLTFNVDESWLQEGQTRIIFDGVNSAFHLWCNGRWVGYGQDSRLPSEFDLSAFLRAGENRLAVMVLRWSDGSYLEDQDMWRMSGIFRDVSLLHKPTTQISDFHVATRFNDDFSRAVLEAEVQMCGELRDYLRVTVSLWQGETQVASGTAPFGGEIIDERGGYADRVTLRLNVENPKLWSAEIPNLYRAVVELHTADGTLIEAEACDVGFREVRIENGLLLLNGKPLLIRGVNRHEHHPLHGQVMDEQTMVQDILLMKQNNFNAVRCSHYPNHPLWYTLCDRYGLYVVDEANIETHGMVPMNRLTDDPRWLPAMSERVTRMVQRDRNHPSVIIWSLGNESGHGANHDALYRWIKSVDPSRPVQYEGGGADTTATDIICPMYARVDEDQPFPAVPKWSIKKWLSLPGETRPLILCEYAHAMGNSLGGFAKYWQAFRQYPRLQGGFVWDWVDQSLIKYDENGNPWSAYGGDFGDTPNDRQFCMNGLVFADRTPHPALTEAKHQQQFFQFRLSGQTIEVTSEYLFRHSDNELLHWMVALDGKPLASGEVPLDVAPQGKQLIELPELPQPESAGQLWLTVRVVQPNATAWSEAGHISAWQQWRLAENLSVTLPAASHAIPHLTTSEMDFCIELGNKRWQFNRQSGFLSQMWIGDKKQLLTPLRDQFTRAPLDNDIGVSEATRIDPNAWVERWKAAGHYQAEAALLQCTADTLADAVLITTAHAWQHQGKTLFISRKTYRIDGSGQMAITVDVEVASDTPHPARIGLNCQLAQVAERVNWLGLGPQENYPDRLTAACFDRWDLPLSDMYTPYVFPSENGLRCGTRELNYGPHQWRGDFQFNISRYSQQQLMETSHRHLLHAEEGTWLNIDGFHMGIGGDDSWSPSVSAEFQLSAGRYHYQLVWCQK

O=C1CCCCN1
GI50 [1]: 764 µM (inactive) | GI50 [2]: > 1120 µM (inactive) | GI50 [3]: > 1120 µM (inactive)

CCOc1ccc2c(c1)S/C(=C\c1cccs1)C(=O)N2
EC50 [4]: > 99 µM (inactive) | EC50 [5]: > 99 µM (inactive)

COc1ccc(S(=O)(=O)n2ccc(-c3ccc(OCCN(C)c4ccccn4)cc3)n2)cc1
AC50 [6]: 1.81 µM (active) | AC50 [7]: 6.63 µM (active) | IC50 [8]: > 100 µM (inactive)

C/C=C\C=C\C(=O)Nc1cccc(C2=NOC3(C2)C[C@@H](C(N)=O)N(C(=O)C(c2ccccc2)c2ccccc2)C3)c1 (stereo partly drawn)
IC50 [9]: 11.9 µM (active) | IC50 [10]: 22.8 µM (active)

Cc1nn(CCC(=O)NNC(S)=NCC(C)C)c(C)c1Br
EC50 [11]: 32.1 µM (active) | IC50 [12]: 15.9 µM (active)

O=c1[nH]c(=O)c2nc3c4ccccc4c4ccccc4c3nc2[nH]1
IC50 [13]: 2.56 µM (active) | IC50 [14]: > 66.6 µM (inactive)

COc1cc(/C=C/[N+](=O)[O-])ccc1OC(=O)c1cccnc1
AC50 [15]: 4.36 µM (active) | CC50 [16]: 17.5 µM (active) | EC50 [11]: > 40 µM (inactive) | IC50 [17]: 1.82 µM (active) | IC50 [12]: 5.87 µM (active)

Cc1ccc(-c2cc(C#N)c(=O)n(Cc3c(Cl)cccc3Cl)c2)cc1
EC50 [4]: 41.9 µM (inactive) | EC50 [5]: > 99 µM (inactive)

COc1ccc(NS(=O)(=O)c2ccc(NC(=S)NC(=O)/C=C/c3ccccc3)cc2)nn1
IC50 [9]: 6.28 µM (active) | IC50 [10]: 40.6 µM (active)
